Patent publication US12415939B2, “Nano-adhesive and surface primer compound and use thereof” (The Regents of the University of California, priority 2015, dated 2025)
Several values for one entry are separate records, joined by “and”; a condition that tells them apart may be missing. Identical values can stand only once.

Legend:
[1] = Cyclic voltammetry of catechol oxidation; format: physicochemical; conditions: for E1/2: DI water, scan rate 1 mV s−1, Ag/AgCl reference
Method: (§1) Cyclic voltammetry was performed on a Versastat 3 potentiostat from Ametek Co. These analyses were carried out using a three-electrode cell: a Pt wire as the counter electrode, an Ag/AgCl reference electrode, and a Carbon paste electrode (CPE) served as the working electrode. CPE is the best choice for adhesive materials because of its ability to be completely polished before each experiment. Catechol auto-oxidation was avoided by performing all electrochemical experiments with degassed deionized water in a glove bag under argon. Scan rate 1 mV s-1 was used for all experiments. CV of 5 mM synthesized polymers and 5 mM methyl catechol, a simple catechol-containing compound, were compared. Oxidation of Catechol carrying molecules occurred at more positive potentials than methyl catechol, indicating the unique structure of the dispersions provide shielding effects that stabilized catechol groups (FIG. 3).
Cyclic voltammetry was performed on a Versastat 3 potentiostat from Ametek Co. (Berwyn, PA). These analyses were carried out using a three-electrode cell: a Pt wire as the counter electrode, an Ag/AgCl reference electrode, and a Carbon paste electrode (CPE) served as the working electrode. CPE is the best choice for adhesive materials because of its ability to be completely polished before each experiment.
as §1, with “s^−1” for “s-1”, “molecules” for “polymers”, “groups. Z-Cat-Ben with an oxidation peak at 840 mV is more resistant to oxidation than the other species” for “groups”, “42).” for “3).”

[2] = Surface forces apparatus (SFA) cohesion/adhesion between thin films on mica; format: physicochemical
[3] = Z-Cat-C10 0.1 mg ml−1 sample in DI water

| SMILES | stability in water to oxidation (shelf life) ([1]; 5 mM in DI water) | oxidation peak ([1]; 5 mM in degassed DI water, 1 mV s−1) [mV] | E1/2 [1] [V] | effect of sodium periodate treatment on cohesion ([2]; 500 pmoles periodate) | cohesion energy Wc between SAMs ([2]; 5 mM in DI water, mica) | effect of aqueous Fe3+ on cohesion ([2]; CFe3+=10 M as printed) | hard-wall thickness ([2]; SAMs from 5 mM, mica) [nm] | cohesion energy Wc before and after periodate and iron treatments ([2]; SAMs on mica) [mJ/m^2] | molecular density on mica ([2]; from cohesion energy and π-π interaction) | oxidation peak [1, 3] [mV] | reduction peak [1, 3] [mV] | adhesion on mica relative to mfp-5 and mfp-amyloid fusion protein [2] | increase in adhesion after asymmetric oxidation ([2]; after tc=60 min contact time) [%] | decrease in cohesion after symmetric periodate oxidation ([2]; contact times ≤tc=10 min, rebounded after tc=60 min) [%] | adhesion energy Wad after periodate oxidation ([2]; cross-linked films on mica, tc=12 h compressive contact) [mJ m^−2] | thin film thickness ([2]; post-oxidation, crosslinked films) | cohesion (or adhesion) energy Wc ([2]; symmetric films adsorbed from 5 mM, DI water, mica) [mJ m^−2] | work of adhesion before periodate ([2]; uncross-linked films on mica) [mJ m^−2] |
| --- | --- | --- | --- | --- | --- | --- | --- | --- | --- | --- | --- | --- | --- | --- | --- | --- | --- | --- |
| C[N+](C)(CCCc1ccccc1)CCOP(=O)([O-])OCCCc1ccc(O)c(O)c1 [Z-Cat-Ben] | stable (shelf life) in water to oxidation | 840 | 0.418 | same before and after | 19±3 mJ/m^2 and 18.7±2.8 mJ/m^2 | not affected | ~1 | ~20 | 1.07×10^18 molecules per m^2 |  |  |  |  |  |  |  |  |  |
| CN(C)CCOP(=O)(O)OCCCc1ccc(O)c(O)c1 [Z-Cat-C10] |  |  | ~0.25 |  |  |  |  |  |  | 530 | 316 | 2-3 fold | 50 | 50 | ~50 | 2-4 nm | 10.1±2.3 | ~20 |
